The results in this text go back to patent US8859584B2, “TRPV1 antagonists” (AbbVie Inc., priority 2011, dated 2014).

Usually pIC50 stands for the negative decadic logarithm of the IC50, by convention in mol/L.

The target in assay [1] is T1, human TRPV1 (Homo sapiens, UniProt Q8NER1).
T1 construct: expressed in transfected cells
As to the kind of experiment: Capsaicin Activation Assay (FLIPR intracellular Ca2+, recombinant HEK293 cells). The assay is classed as cell-based. Particulars: recombinant HEK293 cells expressing hTRPV1; 50 nM capsaicin; read-out: human TRPV1 capsaicin IC50. The procedure: (i) Capsaicin Activation Assay
Dulbecco's modified Eagle medium (DMEM) (with 4.5 mg/mL glucose) and fetal bovine serum were obtained from Hyclone Laboratories, Inc. (Logan, Utah). Dulbecco's phosphate-buffered saline (DPBS) (with 1 mg/mL glucose and 3.6 mg/l Na pyruvate, without phenol red), L-glutamine, hygromycin B, and Lipofectamine® were obtained from Life Technologies (Grand Island, N.Y.). G418 sulfate was obtained from Calbiochem-Novabiochem Corp. (San Diego, Calif.). Capsaicin (8-methyl-N-vanillyl-6-nonenamide) was obtained from Sigma-Aldrich, Co. (St. Louis, Mo.). Fluo-4 AM (N-[4-[6-[(acetyloxy)-methoxy]-2,7-difluoro-3-oxo-3H-xanthen-9-yl]-2-[2-[2-[bis[2-[(acetyloxy)methoxy]-2-oxyethyl]amino]-5-methylphenoxy]ethoxy]phenyl]-N-[2-[(acetyloxy)methoxy]-2-oxyethyl]-glycine, (acetyloxy)methyl ester) was purchased from Molecular Probes (Eugene, Oreg.).
(§1) Expression plasmids encoding the hTRPV1 cDNA were transfected into HEK293 cells using Lipofectamine®. Forty-eight hours after transfection, the neomycin-resistant cells were selected with growth medium containing 800 μg/mL Geneticin (Life Technologies, formerly Gibco BRL). Surviving individual colonies were isolated and screened for TRPV1 activity. Cells expressing recombinant TRPV1 were maintained at 37° C. in DMEM containing 4 mM L-glutamine, 300 μg/mL G418 (Calbiochem) and 10% fetal bovine serum under a humidified 5% CO2 atmosphere.
The functional activity of compounds at the TRPV1 receptor was determined by measurement of intracellular Ca^2+ levels ([Ca^2+]i) using the Fluorescence Imaging Plate Reader (FLIPR)TETRA®. All compounds were tested over a 12-point one-third-log concentration range. Compound stocks, 10 mM, were prepared in DMSO, and diluted serially across a 384-well plate using a Bravo BenchCel workstation (Agilent Technologies, Santa Clara, Calif.). A stock concentration of capsaicin (10 mM) was made in DMSO, and diluted in DPBS to a final concentration of 200 nM (4×). On the day prior to the experiment, the recombinant HEK293 cells expressing human TRPV1 (hTRPV1) were removed from tissue culture flasks and plated in growth medium into black-walled clear-bottom 384-well Biocoat™ poly-D-lysine assay plates (BD Biosciences, Bedford, Mass.) using a Multidrop® dispenser (ThermoScientific, Waltham, Mass.). […] The plated cells were incubated for 90-120 minutes in the dark at room temperature and then test compound was added to each well. Three minutes later, 200 nM capsaicin (4×) solution was added to each well in an amount sufficient to provide a final assay volume of 80 μL and capsaicin concentration of 50 nM. Fluorescence readings were made at 1 to 5 second intervals over the course of the experimental run. The peak increase in relative fluorescence units (minus baseline) was calculated, and expressed as a percentage of the 50 nM capsaicin (control) response.

In assay [2] the target is T1, human TRPV1. The experiment in a line: Acid Activation Assay (pH 5.0, FLIPR intracellular Ca2+, recombinant HEK293 cells). The assay is classed as cell-based. Particulars: percentage of maximal pH 5.0-induced response remaining; HEK293 hTRPV1; max concentration 37.5 μM. The procedure:
(ii) Acid Activation Assay
Dulbecco's modified Eagle's medium (DMEM) with 4.5 mg/mL D-glucose, fetal bovine serum, L-glutamine, and 2-morpholinoethanesulfonic acid (MES) were purchased from Sigma-Aldrich Co. (St. Louis, Mo.). […] The FLIPR® Calcium 4 assay kit was purchased from Molecular Devices (Sunnyvale, Calif.).
as §1
The functional activity of compounds at the TRPV1 receptor was determined by measurement of intracellular Ca^2+ levels ([Ca^2+]i) using the Fluorescence Imaging Plate Reader (FLIPR)TETRA®. […] Compound stocks, 10 mM, were prepared in DMSO, and diluted serially across a 384-well plate using a Bravo BenchCel workstation (Agilent Technologies, Santa Clara, Calif.). On the day prior to the experiment, the recombinant HEK293 cells expressing human TRPV1 (hTRPV1) were removed from tissue culture flasks and plated in growth medium into black-walled clear-bottom 384-well Biocoat™ poly-D-lysine assay plates (BD Biosciences, Bedford, Mass.) using a Multidrop® dispenser (ThermoScientific, Waltham, Mass.). […] The plated cells were incubated for 90-120 min in the dark at 25° C. The test compounds dissolved in DMSO were then added to the plates using an Agilent Bravo workstation (Agilent Technologies Inc., Santa Clara, Calif.). Three minutes later, a pH 5.0 solution was added to each well. Reagents were delivered at a rate of 40 μL/sec, and the final assay volume was 80 μL. Acidic pH solutions were prepared by titration of DPBS/MES with 1 N HCl. The intensity of the fluorescence was captured and digitally transferred to an interfaced PC. The maximum peak measured for the concentration range tested was used to calculate the corresponding peak increase in fluorescence over baseline (relative fluorescence units) which was expressed as the percentage (max % remain) of the maximal pH 5.0-induced response.

Structures are written as SMILES. pIC50: −log10 of the molar value.

T1 sequence (Q8NER1 whole entry): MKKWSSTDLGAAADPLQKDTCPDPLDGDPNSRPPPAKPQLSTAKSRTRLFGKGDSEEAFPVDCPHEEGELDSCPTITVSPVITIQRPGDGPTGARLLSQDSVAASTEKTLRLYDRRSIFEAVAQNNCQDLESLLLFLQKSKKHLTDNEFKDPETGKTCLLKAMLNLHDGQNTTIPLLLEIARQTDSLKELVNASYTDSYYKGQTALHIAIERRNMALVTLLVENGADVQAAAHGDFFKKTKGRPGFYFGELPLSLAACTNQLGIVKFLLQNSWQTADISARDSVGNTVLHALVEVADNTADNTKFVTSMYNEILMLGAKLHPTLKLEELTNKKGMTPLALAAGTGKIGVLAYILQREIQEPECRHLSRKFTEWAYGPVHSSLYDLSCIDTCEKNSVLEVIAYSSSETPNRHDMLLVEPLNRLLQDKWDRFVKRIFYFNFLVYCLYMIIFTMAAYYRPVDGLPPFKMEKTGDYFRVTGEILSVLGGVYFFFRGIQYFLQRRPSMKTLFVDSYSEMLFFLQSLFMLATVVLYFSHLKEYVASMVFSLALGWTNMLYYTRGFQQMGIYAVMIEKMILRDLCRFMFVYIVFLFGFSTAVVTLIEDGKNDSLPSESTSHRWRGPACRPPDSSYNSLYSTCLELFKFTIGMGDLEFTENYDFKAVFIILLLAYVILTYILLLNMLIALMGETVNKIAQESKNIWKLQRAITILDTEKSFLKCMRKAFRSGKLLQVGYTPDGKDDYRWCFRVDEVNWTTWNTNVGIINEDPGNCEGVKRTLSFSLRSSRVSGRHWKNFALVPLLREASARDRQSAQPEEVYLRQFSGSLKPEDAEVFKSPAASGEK

On to `CC1(C)C[C@@H](NC(=O)Nc2cccc3c2C[C@@H](O)C3)c2cccc(C(F)(F)F)c2O1` [Example 34, 1-[(4R)-2,2-dimethyl-8-(trifluoromethyl)-3,4-dihydro-2H-chromen-4-yl]-3-[(2S)-2-hydroxy-2,3-dihydro-1H-inden-4-yl]urea], for which, on human TRPV1 [1], the pIC50 is 7.92. For the same compound, the “human TRPV1 H+ (max % remain)” value on human TRPV1 [2] was 18%.
For `CC1(C)C[C@@H](NC(=O)Nc2ccc(F)c3c2C[C@H](O)C3)c2ccc(Cl)cc2O1` [Example 149, 1-[(4R)-7-chloro-2,2-dimethyl-3,4-dihydro-2H-chromen-4-yl]-3-[(2S)-7-fluoro-2-hydroxy-2,3-dihydro-1H-inden-4-yl]urea], at human TRPV1 [1], the pIC50 was 6.27. Besides, the “human TRPV1 H+ (max % remain)” value on human TRPV1 [2] was 2%.
Turning to `COCC1(COC)C[C@@H](NC(=O)Nc2cccc3c2C[C@H](O)C3)c2cc(F)ccc2O1` [Example 68, 1-[(4R)-6-fluoro-2,2-bis(methoxymethyl)-3,4-dihydro-2H-chromen-4-yl]-3-[(2R)-2-hydroxy-2,3-dihydro-1H-inden-4-yl]urea], the pIC50 on human TRPV1 [1] was 6.01. The “human TRPV1 H+ (max % remain)” value on human TRPV1 [2] came to 79%.
In the case of `CCC1(CC)C[C@@H](NC(=O)Nc2cccc3c2C[C@H](O)C3)c2cccc(F)c2O1` [Example 48, 1-[(4R)-2,2-diethyl-8-fluoro-3,4-dihydro-2H-chromen-4-yl]-3-[(2R)-2-hydroxy-2,3-dihydro-1H-inden-4-yl]urea], the pIC50 at human TRPV1 [1] was 7.62. For the same compound, at human TRPV1 [2], the “human TRPV1 H+ (max % remain)” value was determined as 89%.
With `CC1(C)C[C@@H](NC(=O)Nc2cccc3c2C[C@H](O)C3)c2ccccc21` [Example 63, 1-[(1R)-3,3-dimethyl-2,3-dihydro-1H-inden-1-yl]-3-[(2R)-2-hydroxy-2,3-dihydro-1H-inden-4-yl]urea], the pIC50 on human TRPV1 [1] is 6.85. For the same compound, the “human TRPV1 H+ (max % remain)” value on human TRPV1 [2] was found to be 86%.
The like results for `C[C@]1(CF)C[C@@H](NC(=O)Nc2cccc3c2C[C@H](O)C3)c2cccc(F)c2O1` [Example 66, 1-[(2R,4R)-8-fluoro-2-(fluoromethyl)-2-methyl-3,4-dihydro-2H-chromen-4-yl]-3-[(2R)-2-hydroxy-2,3-dihydro-1H-inden-4-yl]urea] were, in that order, 6.55 and 86%.
Turning to `O=C(Nc1cccc2c1CC(O)C2)NC1CC(c2ccccc2Cl)Oc2ccccc21` (centres unmarked) [Example 120, 1-[2-(2-chlorophenyl)-3,4-dihydro-2H-chromen-4-yl]-3-(2-hydroxy-2,3-dihydro-1H-inden-4-yl)urea], the pIC50 at human TRPV1 [1] was 5.80. For the same compound, the “human TRPV1 H+ (max % remain)” value at human TRPV1 [2] turned out to be 51%.
Take `COc1ccc(C2COc3ccccc3C2NC(=O)Nc2cccc3c2CC(O)C3)cc1` (centres unmarked) [Example 116, 1-(2-hydroxy-2,3-dihydro-1H-inden-4-yl)-3-[3-(4-methoxyphenyl)-3,4-dihydro-2H-chromen-4-yl]urea]: the pIC50 on human TRPV1 [1] was 5.39. Also, on human TRPV1 [2], the “human TRPV1 H+ (max % remain)” value is given as 94%.
For `O=C(Nc1cccc2c1C[C@H](O)C2)NC1COc2cc(Cl)ccc2C1` (stereo partly drawn) [Example 99, 1-(7-chloro-3,4-dihydro-2H-chromen-3-yl)-3-[(2R)-2-hydroxy-2,3-dihydro-1H-inden-4-yl]urea], the pIC50 on human TRPV1 [1] was 6.24. The “human TRPV1 H+ (max % remain)” value on human TRPV1 [2] came out at 75%.
`CCC1(CC)C[C@@H](NC(=O)Nc2cccc3c2C[C@H](O)C3)c2cc(F)ccc2O1` [Example 58, 1-[(4R)-2,2-diethyl-6-fluoro-3,4-dihydro-2H-chromen-4-yl]-3-[(2R)-2-hydroxy-2,3-dihydro-1H-inden-4-yl]urea]: on human TRPV1 [1], the pIC50 is 7.62. The “human TRPV1 H+ (max % remain)” value at human TRPV1 [2] worked out at 67%.
The like results for `CC1(C)C[C@@H](NC(=O)Nc2cccc3c2C[C@@H](O)C3)c2cccc(F)c2O1` [Example 71, 1-[(4R)-8-fluoro-2,2-dimethyl-3,4-dihydro-2H-chromen-4-yl]-3-[(2S)-2-hydroxy-2,3-dihydro-1H-inden-4-yl]urea] were, in that order, 6.28 and 52%.
As for `CC1(C)C[C@@H](NC(=O)Nc2cccc3c2C[C@H](O)C3)c2ccc(C(F)(F)F)nc2O1` [Example 105, 1-[(4R)-2,2-dimethyl-7-(trifluoromethyl)-3,4-dihydro-2H-pyrano[2,3-b]pyridin-4-yl]-3-[(2R)-2-hydroxy-2,3-dihydro-1H-inden-4-yl]urea], the pIC50 on human TRPV1 [1] was 6.82. Also, the “human TRPV1 H+ (max % remain)” value on human TRPV1 [2] came to 39%.
Taken in the same sequence, the figures for `O=C(Nc1cccc2c1C[C@H](O)C2)N[C@@H]1CCOc2c(F)cc(F)cc21` [Example 64, 1-[(4R)-6,8-difluoro-3,4-dihydro-2H-chromen-4-yl]-3-[(2R)-2-hydroxy-2,3-dihydro-1H-inden-4-yl]urea] were 5.32 and 90%.
On to `O=C(Nc1cccc2c1CC(O)C2)NC1CC(c2ccc(C(F)(F)F)cc2)Oc2ccccc21` (centres unmarked) [Example 121, 1-(2-hydroxy-2,3-dihydro-1H-inden-4-yl)-3-{2-[4-(trifluoromethyl)phenyl]-3,4-dihydro-2H-chromen-4-yl}urea], for which the pIC50 on human TRPV1 [1] is 6.17. Besides, on human TRPV1 [2], the “human TRPV1 H+ (max % remain)” value worked out at 57%.
As for `CC(C)(C)c1cccc2c1OCC[C@H]2NC(=O)Nc1cccc2c1C[C@H](O)C2` [Example 51, 1-[(4R)-8-tert-butyl-3,4-dihydro-2H-chromen-4-yl]-3-[(2R)-2-hydroxy-2,3-dihydro-1H-inden-4-yl]urea], the pIC50 on human TRPV1 [1] is 7.74. For the same compound, the “human TRPV1 H+ (max % remain)” value at human TRPV1 [2] was found to be 70%.
The like results for `COc1ccc(CC2COc3ccccc3C2NC(=O)Nc2cccc3c2CC(O)C3)cc1OC` (centres unmarked) [Example 109, 1-[3-(3,4-dimethoxybenzyl)-3,4-dihydro-2H-chromen-4-yl]-3-(2-hydroxy-2,3-dihydro-1H-inden-4-yl)urea] were, in that order, 5.51 and 89%.
`COc1ccc2c(c1)OCC(Cc1ccc(Cl)c(Cl)c1)C2NC(=O)Nc1cccc2c1CC(O)C2` (centres unmarked) [Example 114, 1-[3-(3,4-dichlorobenzyl)-7-methoxy-3,4-dihydro-2H-chromen-4-yl]-3-(2-hydroxy-2,3-dihydro-1H-inden-4-yl)urea]: the pIC50 at human TRPV1 [1] was 6.14. The “human TRPV1 H+ (max % remain)” value on human TRPV1 [2] turned out to be 43%.
As to `CC1(C)C[C@@H](NC(=O)Nc2cccc3c2C[C@@H](O)C3)c2ccccc2O1` [Example 82, 1-[(4R)-2,2-dimethyl-3,4-dihydro-2H-chromen-4-yl]-3-[(2S)-2-hydroxy-2,3-dihydro-1H-inden-4-yl]urea], at human TRPV1 [1], the negative-log IC50 (pIC50) was 6.29. The “human TRPV1 H+ (max % remain)” value on human TRPV1 [2] was found to be 56%.
Consider `CC(C)(C)c1ccc2c(c1)CC[C@H]2NC(=O)Nc1cccc2[nH]ncc12` [C, reference compound], for which the “human TRPV1 H+ (max % remain)” value on human TRPV1 [2] is 1%.
Turning to `Cc1nc(Nc2cccc3c2C[C@H](O)CC3)oc1-c1ccc(C(F)(F)F)cc1` [Example D, reference compound], the “human TRPV1 H+ (max % remain)” value at human TRPV1 [2] is given as 3%.
